Laboratory results as given in patent EP0166986A1, “Disubstituted 3,7-diaryl-1,5,3,7-dioxadiazocines, and process for their preparation” (Deutsches Krebsforschungszentrum Stiftung des öffentlichen …, priority 1984, dated 1986).

How the values were obtained:
[1] = tested on: S. Typhimurium Stämmen; assay: Mutagenicity test (Ames test), summary statements not tied to one strain; type: cell-based; conditions: for Mutagenität: S. Typhimurium strains, overall result in words
Procedure: (§1) • a) Mutagenitätsprüfungen Die Versuchsverbindung, gelöst in 40 µl an Dimethylsulphoxid und 100 µl eines Übernacht-Kulturmediums wurde zu 500 µl eines S9-Gemisches gegeben das 100 µl Leber S9 von mit Aroclor behandelten männlichen BD VI Ratten, 50 µl 0,15 M KC1 - 5 mM Sørensen Puffer pH 7,4 , […] Sørensen Phosphat Puffer (pH 7,4), […] NADP^+, 2,5 µmol Glukose-6-phosphat und […] MgC12 enthält. Das Gemisch wurde bei 37°C 30 Minuten lang unter Schütteln vorinkubiert und dann mit 2 ml histidinarmem Weichagar für die Plattenbildung auf minimalem Glukoseagar kombiniert. Die Anzahl der Revertanten wurde nach 48-stündiger Inkubation bei 37°C gezählt.
(§2) Mutagenität von synthetischen zyklischen Dioxadiazocinen in S. Typhimurium Stämmen. • a) Die meisten Zahlen entsprechen Mittelwerten aus zwei Versuchsreihen, die je dreifach gemacht wurden. Die Anzahl der spontanen Revertanten pro Platte (in Gegenwart des Lösungsmittels) wurde abgezogen. • b) AS: die Versuche wurden in Gegenwart (+) oder in Abwesenheit (-) eines metabolischen Aktivierungssystems aus S9 Rattenleber durchgeführt. • c) Die Konzentration bei welcher die untersuchten Verbindungen in S9-Mischung ausfielen.

[2] = tested on: TA100; assay: Mutagenicity test (Ames test), preincubation with or without rat liver S9; type: cell-based, S. Typhimurium
Procedure: as §1, §2

[3] = tested on: TA98; assay: as above; type: cell-based, S. Typhimurium
Procedure: as §1, §2

[4] = TA100, +AS (rat liver S9), 30 µg pro Platte, spontaneous revertants subtracted
[5] = TA100, +AS (rat liver S9), 100 µg pro Platte, spontaneous revertants subtracted (pp'-CH3O CO precipitated in S9 mix)
[6] = TA100, +AS (rat liver S9), 300 µg pro Platte, compounds precipitated in S9 mix, spontaneous revertants subtracted
[7] = TA100, -AS, 30 µg pro Platte, spontaneous revertants subtracted
[8] = TA100, -AS, 100 µg pro Platte, spontaneous revertants subtracted
[9] = TA100, -AS, 300 µg pro Platte, spontaneous revertants subtracted
[10] = TA98, +AS (rat liver S9), 30 µg pro Platte, spontaneous revertants subtracted
[11] = TA98, +AS (rat liver S9), 100 µg pro Platte, spontaneous revertants subtracted (pp'-CH3O CO precipitated in S9 mix)
[12] = TA98, +AS (rat liver S9), 300 µg pro Platte, compounds precipitated in S9 mix, spontaneous revertants subtracted
[13] = TA98, -AS, 30 µg pro Platte, spontaneous revertants subtracted
[14] = TA98, -AS, 100 µg pro Platte, spontaneous revertants subtracted
[15] = TA98, -AS, 300 µg pro Platte, spontaneous revertants subtracted

SMILES	Mutagenität [1]	Anzahl der Revertanten pro Platte [2, 4] [Revertanten pro Platte]	Anzahl der Revertanten pro Platte [2, 5] [Revertanten pro Platte]	Anzahl der Revertanten pro Platte [2, 6] [Revertanten pro Platte]	Anzahl der Revertanten pro Platte [2, 7] [Revertanten pro Platte]	Anzahl der Revertanten pro Platte [2, 8] [Revertanten pro Platte]	Anzahl der Revertanten pro Platte [2, 9] [Revertanten pro Platte]	Anzahl der Revertanten pro Platte [3, 10] [Revertanten pro Platte]	Anzahl der Revertanten pro Platte [3, 11] [Revertanten pro Platte]	Anzahl der Revertanten pro Platte [3, 12] [Revertanten pro Platte]	Anzahl der Revertanten pro Platte [3, 13] [Revertanten pro Platte]	Anzahl der Revertanten pro Platte [3, 14] [Revertanten pro Platte]	Anzahl der Revertanten pro Platte [3, 15] [Revertanten pro Platte]	further results
FC(F)(F)c1ccc(N2COCN(c3ccc(C(F)(F)F)cc3)COC2)cc1 [pp'-CF3, para-Trifluormethyl-3,7-diphenyl-1,5,3,7-dioxadiazocin]	mutagen	44	86	98	8	14	5	10	14	24	0	0	2	Anzahl der Revertanten pro Platte ([2]; TA100, +AS (rat liver S9), 1000 µg pro Platte, compound precipitated in S9 mix, spontaneous revertants subtracted): 96 Revertanten pro Platte; Anzahl der Revertanten pro Platte ([2]; TA100, -AS, 1000 µg pro Platte, spontaneous revertants subtracted): 1 Revertanten pro Platte; Mutagenität ([2]; TA100, in presence of metabolic activation system, result in words): schwach mutagen; Anzahl der Revertanten pro Platte ([3]; TA98, +AS (rat liver S9), 1000 µg pro Platte, compound precipitated in S9 mix, spontaneous revertants subtracted): 12 Revertanten pro Platte; Anzahl der Revertanten pro Platte ([3]; TA98, -AS, 1000 µg pro Platte, spontaneous revertants subtracted): 0 Revertanten pro Platte
O=[N+]([O-])c1ccc(N2COCN(c3ccc([N+](=O)[O-])cc3)COC2)cc1 [pp'-NO2]	mutagen	78	195	357	31	100	206	88	280	507	163	373	839	direkte Mutagenität ([1]; without metabolic activation, result in words): direkt mutagen; Anzahl der Revertanten pro Platte ([2]; TA100, +AS (rat liver S9), 10 µg pro Platte, spontaneous revertants subtracted): 22 Revertanten pro Platte; Anzahl der Revertanten pro Platte ([2]; TA100, -AS, 10 µg pro Platte, spontaneous revertants subtracted): 13 Revertanten pro Platte; Mutagenität (Vergleich der Verbindungen) ([2]; TA100, rank among the three tested compounds): aktivste Verbindung; Mutagenität der reaktiven metabolischen Spezies ([2]; with metabolic activation, TA100 compared with TA98): nur in TA100 mutagen oder stärker mutagen; Anzahl der Revertanten pro Platte ([3]; TA98, +AS (rat liver S9), 10 µg pro Platte, spontaneous revertants subtracted): 37 Revertanten pro Platte; Anzahl der Revertanten pro Platte ([3]; TA98, -AS, 10 µg pro Platte, spontaneous revertants subtracted): 65 Revertanten pro Platte; Mutagenität (Vergleich der Verbindungen) ([3]; TA98, rank among the three tested compounds): aktivste Verbindung; direkte Mutagenität ([3]; without metabolic activation, TA98 compared with TA100): höher in TA98
